In data set [1] the test system is streptozotocin-diabetic Brown-Norway rats. Put plainly: Retinal vascular leakage (Evans Blue dye) after eye drops in streptozotocin-diabetic Brown-Norway rats. It is filed as in vivo, rat. The source says:
Administration of streptozotocin to rodents produces a massive destruction of pancreatic β-cells, and thus, triggers marked elevation of glycemia and development of a diabetic state which, in part, mimics early stages of type 1 diabetes. In this regard, streptozotocin-treated rats develop an inflammatory retinopathy featured by rupture of the blood-retinal barrier, increase of inflammatory mediators, cytokines and growth factors (VEGF, basic fibroblast growth factor), microglial cell activation and leukostasis.
Male Brown-Norway or Wistar rats were made diabetic by […] of 65 mg/kg intraperitoneal streptozotocin. Rats with a glycemia<350 mg/dl were discarded from the study. […] On day 15, retinal vascular leakage was determined by measurement of retinal content of Evans Blue dye.
Recombinant tissue kallikrein binding protein (rKBP) was used as a reference drug and was given intravitreally 48 hours before vascular leakage measurement. Values are means ±standard error mean of 12 eyes/group (6 rats). *** means that P<0.001 in a Student's t-test.
The route by which the phosphate salt of compound n° 49 reaches the retina following topical instillation was investigated to determine whether it is mainly by systemic circulation or by the trans- and/or peri-ocular pathway.

For data set [2], the system named is mRNA of cytokines, vasoactive mediators and growth factors in retina. Put plainly: Expression of mRNA of cytokines, vasoactive mediators and growth factors in retina of diabetic Wistar rats. It is filed as in vivo, rat. Particulars: 1% eye drops for 7 days, phosphate salt. The text has this: Expression of mRNA of B1R, B2R, i-NOS, e-NOS, COX-2, ICAM-1, VEGF-R2, VEGF-a, IL-1β and HIF-1α was increased in diabetic rat retina compared to control by 7.5-fold (P<0.05), 5.5, 15- (P<0.01), 6.5- , 8- (P<0.05), 8- , 5- (P<0.05), 12-, 6.5- (P<0.01) and 7-fold (P<0.05), respectively. Expression of TNF-α mRNA remained unchanged.

The test system of data set [3] is leukocyte adhesion to the retinal vasculature. Put plainly: Leukocyte adhesion to the retinal vasculature of streptozotocin-diabetic Wistar rats. Particulars: phosphate salt, 1% eye drop twice-a-day for 7 days; P<0.05. Format: in vivo, rat.
A short description of data set [4]: Ocular distribution study in albino and pigmented rabbits (14C-compound, single ocular administration). Format: in vivo, rabbit. The source says: Further, an ocular distribution study in albino and pigmented rabbits has been performed.
The subject of data set [5] is mRNA of cytokines, vasoactive mediators and growth factors in retina. Put plainly: Expression of mRNA of cytokines, vasoactive mediators and growth factors in retina of diabetic Wistar rats. Particulars: 1% eye drops for 7 days, phosphate salt. Format: in vivo, rat. This is another data set of the same source.
Data set [6] has as its system STZ diabetic Brown-Norway rats. The following applies: intravitreal route, positive reference drug; cited from earlier work.
[7] abbreviates: single ocular 30 μl of 2% (base equivalent) 14C formulation.

Several values for one entry are separate records, joined by “and”; a condition that tells them apart may be missing. Identical values can stand only once.

The source of these data is patent publication US20130253027A1, “DOSAGES OF ARYLSULFONAMIDE DERIVATIVES” (FOVEA PHARMACEUTICALS, priority 2010, published 2013).

Turning to `COc1cc(C)c(S(=O)(=O)N(C)CCOCC(=O)N(C)Cc2ccc(C3=NCCN3)cc2)c(C)c1` [compound n° 49], the “reduction of retinal edema, maximum” value in data set [1] (1% eye drops, two separate preliminary studies (data not shown)) was 58% and 63%. The “reduction of retinal vascular permeability, treated eye” value in data set [1] (3% phosphate salt in a single eye for 7 days) is 37%. Moreover, in data set [1] (phosphate salt, eye drop (10 μl) 0.1-3% twice daily for 7 days, dose-dependent), the “reduction of retinal oedema, maximum” value is 55%. For the same molecule, in data set [1] (test not specified), the “activity of phosphate salt form compared to fumarate salt” value is “equivalent activity”. In data set [2], the “mRNA expression of B1R in retina” value is on record as “down-regulated to control level”, the “mRNA expression of B2R in retina” value is “down-regulated to control level”, the “mRNA expression of COX-2 in retina” value is given as “down-regulated to control level” and the “mRNA expression of HIF-1α in retina” value was “down-regulated to control level”. Moreover, in data set [2], the “mRNA expression of ICAM-1 in retina” value is reported as “down-regulated to control level”, the “mRNA expression of VEGF-A in retina (first mention in list)” value was “down-regulated to control level”, the “mRNA expression of e-NOS in retina” value is listed as “down-regulated to control level” and the “mRNA expression of i-NOS in retina” value was “down-regulated to control level”. Moreover, the “reduction of expression of VEGF-A mRNA in retina” value in data set [2] came out at 50%. Further, the “leukostasis (number of leukocytes in retinal vessels)” value in data set [3] is listed as “significantly blunted”. The molecule further gave a Cmax in plasma in data set [4] (albino and pigmented rabbits (similar profiles), single ocular 30 μl of 2%) of 88 ng/mL. In data set [4] (setting [7]), the “AUC 0-48 in aqueous, retina, choroids, whole blood and plasma, pigmented rabbit higher than albino” value is given as “at least 2 fold”; the “Cmax, pigmented rabbit lower than albino” value is given as “at least 2 fold”; the “t½ in vitreous, retina and choroids, pigmented rabbit higher than albino” value is reported as “at least 2 fold”. In addition, in data set [5], the “mRNA expression of IL-1α in retina” value is “down-regulated to control level”.

B1: rKBP: Recombinant tissue kallikrein binding protein, reference drug given intravitreally (protein, UniProt P29622 21-427, looked up)
Kallistatin: QLHVEHDGESCSNSSHQQILETGEGSPSLKIAPANADFAFRFYYLIASETPGKNIFFSPLSISAAYAMLSLGACSHSRSQILEGLGFNLTELSESDVHRGFQHLLHTLNLPGHGLETRVGSALFLSHNLKFLAKFLNDTMAVYEAKLFHTNFYDTVGTIQLINDHVKKETRGKIVDLVSELKKDVLMVLVNYIYFKALWEKPFISSRTTPKDFYVDENTTVRVPMMLQDQEHHWYLHDRYLPCSVLRMDYKGDATVFFILPNQGKMREIEEVLTPEMLMRWNNLLRKRNFYKKLELHLPKFSISGSYVLDQILPRLGFTDLFSKWADLSGITKQQKLEASKSFHKATLDVDEAGTEAAAATSFAIKFFSAQTNRHILRFNRPFLVVIFSTSTQSVLFLGKVVDPTKP
With B1, the “reduction of retinal vascular leakage” value in data set [6] is “approximately 50%”.
